According to publication PMC5290327, “SC83288 is a clinical development candidate for the treatment of severe malaria” (Nature Communications, 2017):
“Also recorded” adds a separate entry of the source. Like-named read-outs stand apart in the source and are kept apart here.

Columns and labels:
[1] = Allometric scaling, prediction of human PK
[2] = Measured pK; assay type: physicochemical
Experimental: SC81458 and SC83288 were soluble in water (890 and 940 μg ml^−1, respectively) and organic solvents. […] The compounds were stable in different physiological solutions, including artificial gastric juice, simulated intestinal fluid, phosphate-buffered saline and human plasma, when incubated for 6 h at 37 °C.

[3] = Tolerability of i.v. bolus dose; assay type: in vivo, mouse; details: mice
Experimental: (§1) The maximal-tolerated i.v. bolus dose of SC83288 was at 30 mg kg^−1 body weight (extrapolated initial drug plasma concentration C0 of 65,600 ng ml^−1) and 15 mg kg^−1 body weight (C0 of 27,300 ng ml^−1) in rats and mice, respectively. Observed adverse effects included ataxia, respiratory symptoms and sleepiness. However, all treated animals fully recovered within 30 min after drug application. […] Increasing the dose to 45 mg kg^−1 body weight caused apnoea in rats. The no-observed-adverse-effect level and the no-observed-effect level in rats corresponded to a tested i.v. bolus dose of 22.5 mg kg^−1 body weight (C0 of 49,200 ng ml^−1) and 15 mg kg^−1 body weight (C0 of 32,800 ng ml^−1), respectively.
On the treatment day, all animals were weighed and the dosing volume was calculated for each individual animal according to its actual body weight. All animal were dosed once. Blood samples were taken at different time points and plasma was collected after centrifugation (10,000g, 10 min, 4 °C). Plasma samples were analysed by LC–MS/MS. […] All relevant observations were recorded. The PK studies in cynomolgus monkeys and beagle dogs were performed by the Laboratory of Pharmacology and Toxicology (LPT), Hamburg, and PK and toxicity studies in mice and rats were performed by the 4SC Discovery GmbH, Munich. […]

[4] = PK study; assay type: in vivo; details: dog i.v. 1.7 mg kg^−1; for half-life: dog
Experimental: (§2) On the treatment day, all animals were weighed and the dosing volume was calculated for each individual animal according to its actual body weight. All animal were dosed once. Blood samples were taken at different time points and plasma was collected after centrifugation (10,000g, 10 min, 4 °C). Plasma samples were analysed by LC–MS/MS. […] All relevant observations were recorded. The PK studies in cynomolgus monkeys and beagle dogs were performed by the Laboratory of Pharmacology and Toxicology (LPT), Hamburg, and PK and toxicity studies in mice and rats were performed by the 4SC Discovery GmbH, Munich. PK parameters were obtained by a non-compartment analysis, using Kinetica 4.1 (Thermo Scientific).

[5] = in vivo; assay type: in vivo, rat; details: for C0: rat, in vivo, iv; for ALB / ALB/GLOB / ALP / ALT / AMY / AST / BUN / BUN/CREA / CA / CK / CRE / EOS / GLOB / GLU / HCT / HGB / K+ / MCH / MCHC / MCV / MPV / NA+ / NA/K / PHOS / PLT / RBC / RDW / TBIL / TP / WBC: 24h
Experimental: as §1, §2

[6] = system: Dd2 trophozoites; experiment: In vitro speed of action, clearance of trophozoites (Vial protocol); assay type: cell-based, Plasmodium falciparum; details: 500 nM
[7] = system: P. falciparum strain W2; experiment: Efficacy in the Pf/NSG mouse model; assay type: in vivo, Plasmodium falciparum; details: W2, humanized NSG mouse

COC(=O)N1CCN(C(=N)c2cccc(NC(=O)Nc3ccc(S(=O)(=O)NCc4ccc(S(N)(=O)=O)cc4)cc3)c2)CC1 [SC83288, methyl 4-(imino(3-(3-(4-(N-(4-sulfamoylbenzyl)sulfamoyl)phenyl)ureido)phenyl)methyl) piperazine-1-carboxylate]
predicted human plasma clearance ([1]; allometric scaling, rule of exponents): 14.7 L/h
total plasma clearance rate (higher estimate) ([1]; human): 15,180 ml h^−1
total plasma concentration for […] the free MPC ([1]; human projection, assuming 78% plasma protein binding): 860 ng/mL
pK [2]: 9.82
maximal-tolerated i.v. bolus dose [3]: 15 mg kg^−1 body weight
C0 ([3]; mouse, plasma, iv, 15 mg kg^−1 i.v. bolus, read-out: extrapolated C0): 27300 ng/mL
half-life ([4]; beagle, plasma, iv, read-out: t1/2 effective): 35 min
half-life ([4]; beagle, plasma, iv, read-out: t1/2 initial): 12 min
half-life ([4]; beagle, plasma, iv, read-out: t1/2 terminal): 90 min
AUC(0-inf) ([4]; beagle, plasma, iv): 2260 ng·h/mL
C0 ([4]; beagle, plasma, iv): 5580 ng/mL
Cmax ([4]; beagle, plasma, iv): 4560 ng/mL
Tmax ([4]; beagle, plasma, iv): 5 min
clearance ([4]; beagle, plasma, iv): 14.7 mL/min/kg
MRT last ([4]; beagle, plasma, iv, read-out: MRT0-t): 50.4 min
VC [4]: 0.359 L/kg
haematological and clinical biochemical parameters ([5]; 24 h post application): remained within normal range
safety margin ([5]; projected dosing regimen vs i.v. NOAEL in rats): ~55 fold
C0 ([5]; rats, 15 mg kg^−1 i.v. bolus (NOEL), read-out: extrapolated C0): 32800 ng/mL
C0 ([5]; rats, 22.5 mg kg^−1 i.v. bolus (NOAEL), read-out: extrapolated C0): 49200 ng/mL
C0 ([5]; rats, 30 mg kg^−1 i.v. bolus, read-out: extrapolated initial drug plasma concentration C0): 65600 ng/mL
maximal-tolerated i.v. bolus dose ([5]; rats): 30 mg kg^−1 body weight
time to full recovery after drug application ([5]; rats and mice at maximal-tolerated dose): ≤ 30 min
adverse effect ([5]; rats, 45 mg kg^−1 body weight): apnea; also recorded: apnoea
ALB ([5]; rats, 15 mg/kg): 4.9 g/dL
ALB/GLOB ([5]; rats, 15 mg/kg): 5.5 g/dL
ALP ([5]; rats, 15 mg/kg): 306 U l-1
ALT ([5]; rats, 15 mg/kg): 51 U l-1
AMY ([5]; rats, 15 mg/kg): 909 U l-1
AST ([5]; rats, 15 mg/kg): 70 U l-1
BUN ([5]; rats, 15 mg/kg): 14.7 mg/dL
BUN/CREA ([5]; rats, 15 mg/kg): 66.7 mg/dL
CA ([5]; rats, 15 mg/kg): 11.0 mg/dL
CK ([5]; rats, 15 mg/kg): 176 U l-1
CRE ([5]; rats, 15 mg/kg): 0.2 mg/dL
EOS ([5]; rats, 15 mg/kg): 0.4%
GLOB ([5]; rats, 15 mg/kg): 0.9 g/dL
GLU ([5]; rats, 15 mg/kg): 202 mg/dL
HCT ([5]; rats, 15 mg/kg): 40.9%
HGB ([5]; rats, 15 mg/kg): 14.3 g/dL
K+ ([5]; rats, 15 mg/kg): 5.1 mmol/L
MCH ([5]; rats, 15 mg/kg): 20.5 pg
MCHC ([5]; rats, 15 mg/kg): 35.1 g/dL
MCV ([5]; rats, 15 mg/kg): 58 µm3
MPV ([5]; rats, 15 mg/kg): 5.7 µm3
NA+ ([5]; rats, 15 mg/kg): 136 mmol/L
NA/K ([5]; rats, 15 mg/kg): 26.7 mmol/L
PHOS ([5]; rats, 15 mg/kg): 9.4 mg/dL
PLT ([5]; rats, 15 mg/kg): 812 103 mm-3
RBC ([5]; rats, 15 mg/kg): 7.00 103 mm-3
RDW ([5]; rats, 15 mg/kg): 13.3%
TBIL ([5]; rats, 15 mg/kg): 0.4 mg/dL
TP ([5]; rats, 15 mg/kg): 5.8 g/dL
WBC ([5]; rats, 15 mg/kg): 16.7 103 mm-3
ALB ([5]; rats, 22.5 mg/kg): 5.0 g/dL
ALB/GLOB ([5]; rats, 22.5 mg/kg): 6.7 g/dL
ALP ([5]; rats, 22.5 mg/kg): 399 U l-1
ALT ([5]; rats, 22.5 mg/kg): 58 U l-1
AMY ([5]; rats, 22.5 mg/kg): 921 U l-1
AST ([5]; rats, 22.5 mg/kg): 79 U l-1
BUN ([5]; rats, 22.5 mg/kg): 17.5 mg/dL
BUN/CREA ([5]; rats, 22.5 mg/kg): 72.5 mg/dL
CA ([5]; rats, 22.5 mg/kg): 11.0 mg/dL
CK ([5]; rats, 22.5 mg/kg): 97 U l-1
CRE ([5]; rats, 22.5 mg/kg): 0.3 mg/dL
EOS ([5]; rats, 22.5 mg/kg): 0.3%
GLOB ([5]; rats, 22.5 mg/kg): 0.8 g/dL
GLU ([5]; rats, 22.5 mg/kg): 160 mg/dL
HCT ([5]; rats, 22.5 mg/kg): 39.6%
HGB ([5]; rats, 22.5 mg/kg): 14.2 g/dL
K+ ([5]; rats, 22.5 mg/kg): 5.3 mmol/L
MCH ([5]; rats, 22.5 mg/kg): 21.0 pg
MCHC ([5]; rats, 22.5 mg/kg): 35.9 g/dL
MCV ([5]; rats, 22.5 mg/kg): 59 µm3
MPV ([5]; rats, 22.5 mg/kg): 5.9 µm3
NA+ ([5]; rats, 22.5 mg/kg): 135 mmol/L
NA/K ([5]; rats, 22.5 mg/kg): 25.7 mmol/L
PHOS ([5]; rats, 22.5 mg/kg): 9.2 mg/dL
PLT ([5]; rats, 22.5 mg/kg): 847 103 mm-3
RBC ([5]; rats, 22.5 mg/kg): 6.77 103 mm-3
RDW ([5]; rats, 22.5 mg/kg): 13.3%
TBIL ([5]; rats, 22.5 mg/kg): 0.3 mg/dL
TP ([5]; rats, 22.5 mg/kg): 5.7 g/dL
WBC ([5]; rats, 22.5 mg/kg): 14.3 103 mm-3
ALB ([5]; rats, 30 mg/kg): 5.4 g/dL
ALB/GLOB ([5]; rats, 30 mg/kg): 8.9 g/dL
ALP ([5]; rats, 30 mg/kg): 424 U l-1
ALT ([5]; rats, 30 mg/kg): 58 U l-1
AMY ([5]; rats, 30 mg/kg): 962 U l-1
AST ([5]; rats, 30 mg/kg): 85 U l-1
BUN ([5]; rats, 30 mg/kg): 15.7 mg/dL
BUN/CREA ([5]; rats, 30 mg/kg): 78.3 mg/dL
CA ([5]; rats, 30 mg/kg): 11.2 mg/dL
CK ([5]; rats, 30 mg/kg): 91 U l-1
CRE ([5]; rats, 30 mg/kg): 0.2 mg/dL
EOS ([5]; rats, 30 mg/kg): 0.3%
GLOB ([5]; rats, 30 mg/kg): 0.6 g/dL
GLU ([5]; rats, 30 mg/kg): 170 mg/dL
HCT ([5]; rats, 30 mg/kg): 40.1%
HGB ([5]; rats, 30 mg/kg): 14.3 g/dL
K+ ([5]; rats, 30 mg/kg): 5.4 mmol/L
MCH ([5]; rats, 30 mg/kg): 20.5 pg
MCHC ([5]; rats, 30 mg/kg): 35.8 g/dL
MCV ([5]; rats, 30 mg/kg): 57 µm3
MPV ([5]; rats, 30 mg/kg): 5.7 µm3
NA+ ([5]; rats, 30 mg/kg): 136 mmol/L
NA/K ([5]; rats, 30 mg/kg): 25.2 mmol/L
PHOS ([5]; rats, 30 mg/kg): 9.0 mg/dL
PLT ([5]; rats, 30 mg/kg): 869 103 mm-3
RBC ([5]; rats, 30 mg/kg): 7.00 103 mm-3
RDW ([5]; rats, 30 mg/kg): 13.4%
TBIL ([5]; rats, 30 mg/kg): 0.3 mg/dL
TP ([5]; rats, 30 mg/kg): 6.0 g/dL
WBC ([5]; rats, 30 mg/kg): 11.2 103 mm-3
no-observed-adverse-effect level ([5]; rats, i.v. bolus): 22.5 mg kg^−1 body weight
no-observed-effect level ([5]; rats, i.v. bolus): 15 mg kg^−1 body weight
exposure time to clear a 0.5% parasitemia [6]: ≤ 3 ± 1 h

CCCCN1CCN(C(=N)c2cccc(NC(=O)Nc3ccc(S(=O)(=O)NCc4ccc(S(N)(=O)=O)cc4)cc3)c2)CC1 [SC81458, 4-(3-(3-((4-butylpiperazin-1-yl)(imino)methyl)phenyl)ureido)-N-(4-sulfamoylbenzyl) benzenesulfonamide]
In vivo logPRR [7]: 5.3
